Target: IDO1 (Homo sapiens, UniProt P14902)
Assay: IDO1 Cellular Assay in Hela Cells Stimulated with IFNγ
Type: cell-based
Settings: IFNγ 100 ng/mL, 300 uM L-tryptophan, about 48 hours, fluorescence readout, read-out: IDO1 HELA Cell Assay, IC50
Procedure: Biological Assays IDO1 Cellular Assay in Hela Cells Stimulated with IFNγ
Hela cells were cultured in complete Hela culture medium ([…], 10% heat-inactivated fetal bovine serum) and expanded to about 1×10^9 cells. The cells were then collected and frozen down at 10×10^6 cells/vial in 1 mL frozen medium (90% complete Hela culture medium, 10% DMSO).
Compounds to be tested were serially diluted in ten 3-fold steps in DMSO starting from 10 mM DMSO stocks in Echo low volume plate(s). Compound dilutions or DMSO alone were then dispensed from the dilution plate(s) into Greiner black 384-well assay plate(s) (catalog #781086, 50 nL/well) using an Echo 550 acoustic liquid handler (Labcyte).
Frozen Hela cells were thawed and transferred into Hela assay medium (99% complete Hela culture medium, 1% Pen/Strep) with 20 mL medium/vial of cells. The cells were spun down at 250 g in a table top centrifuge for 5 min and suspended in same volume of Hela assay medium. […] Sterile L-tryptophan were added to the cells with final concentration of 300 uM L-tryptophan. A small aliquot (2 mL/plate) of Hela cells were set aside and were not treated with IFNγ, to serve as the Max-E control. The rest of Hela cells were added with sterile IFNγ (Cat #285-IF, R & D systems) with a final concentration of 100 ng/mL.
Hela cells with and without IFNγ were dispensed to the respective wells of 384-well assay plates containing the compounds. The plates were incubated for about 48 hours at a 37° C., 5% CO2 incubator. Afterwards, 12 μL of 0.5 M methyl isonipecotate in dimethyl sulfoxide were added into each well and the plates were sealed and incubated at 37° C. without CO2 overnight. The plates were centrifuged for 1 min at 200×g. The resulting fluorescence was measured in a Spectramax plate reader (Molecular Devices) with a 400 nm excitation filter and a 510 nm emission filter.
Potencies were calculated by […] least squares fit to the four parameter logistic IC50 equation.

IDO1, sequence (P14902 whole entry): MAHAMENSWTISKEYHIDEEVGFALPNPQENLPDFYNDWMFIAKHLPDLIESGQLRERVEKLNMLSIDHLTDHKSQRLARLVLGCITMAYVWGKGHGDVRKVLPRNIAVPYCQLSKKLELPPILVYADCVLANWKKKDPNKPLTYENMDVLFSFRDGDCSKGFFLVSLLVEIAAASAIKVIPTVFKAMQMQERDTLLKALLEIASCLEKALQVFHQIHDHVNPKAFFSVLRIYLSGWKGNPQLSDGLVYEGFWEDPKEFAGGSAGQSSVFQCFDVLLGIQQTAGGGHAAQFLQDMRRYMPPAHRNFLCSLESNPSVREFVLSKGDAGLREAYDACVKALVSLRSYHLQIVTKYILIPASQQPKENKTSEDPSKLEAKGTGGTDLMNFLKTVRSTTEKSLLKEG

| Compound | IC50 [µM] |
| --- | --- |
| C[C@H](C(=O)Nc1ccc(F)c(Cl)c1)C12CC(NC(=O)c3ccc(Cl)c(Cl)c3)(C1)C2 [Example 96, (S)-3,4-dichloro-N-(3-(1-((3-chloro-4-fluorophenyl)amino)-1-oxopropan-2-yl)bicyclo[1.1.1]pentan-1-yl)benzamide] | 0.0784 |
| C[C@H](C(=O)Nc1cnc(Cl)c(Cl)c1)C12CC(NC(=O)c3ccc(Cl)c(Cl)c3)(C1)C2 [Example 93, (S)-3,4-dichloro-N-(3-(1-((5,6-dichloropyridin-3-yl)amino)-1-oxopropan-2-yl)bicyclo[1.1.1]pentan-1-yl)benzamide] | 0.105 |
| C[C@H](C(=O)Nc1ccc(F)cc1)C12CC(NC(=O)c3ccc(F)c(Cl)c3)(C1)C2 [Example 48, 3-chloro-4-fluoro-N-[3-[(1S)-2-(4-fluoroanilino)-1-methyl-2-oxo-ethyl]-1-bicyclo[1.1.1]pentanyl]benzamide] | 0.00172 |
| C[C@H](C(=O)Nc1ccc(F)cc1)C12CC(NC(=O)c3cnc(Cl)c(Cl)c3)(C1)C2 [Example 63, 5,6-dichloro-N-[3-[(1S)-2-(4-fluoroanilino)-1-methyl-2-oxo-ethyl]-1-bicyclo[1.1.1]pentanyl]pyridin-1-ium-3-carboxamide] | 0.0114 |
| COc1cc(C(=O)NC23CC([C@H](C)C(=O)Nc4ccc(F)cc4)(C2)C3)ccc1F [Example 67, 4-fluoro-N-[3-[(1S)-2-(4-fluoroanilino)-1-methyl-2-oxo-ethyl]-1-bicyclo[1.1.1]pentanyl]-3-methoxy-benzamide] | 0.098 |
| C[C@H](C(=O)Nc1ccc(F)cc1)C12CC(NC(=O)Nc3cccc(Cl)c3)(C1)C2 [Example 81, (S)-2-(3-(3-(3-chlorophenyl)ureido)bicyclo [1.1.1]pentan-1-yl)-N-(4-fluorophenyl)propanamide] | 0.0154 |
| Cc1ccc(C(=O)NC23CC([C@H](C)C(=O)Nc4ccc(F)cc4)(C2)C3)cc1F [Example 58, 3-fluoro-N-[3-[(1S)-2-(4-fluoroanilino)-1-methyl-2-oxo-ethyl]-1-bicyclo[1.1.1]pentanyl]-4-methyl-benzamide] | 0.0166 |
| Cc1noc(C(=O)NC23CC(C4(NC(=O)c5ccc(F)cc5)CC4)(C2)C3)n1 [Example 28, N-(3-(1-(4-fluorobenzamido)cyclopropyl)bicyclo[1.1.1]pentan-1-yl)-3-methyl-1,2,4-oxadiazole-5-carboxamide] | 0.0722 |
| Cc1ccc(C(=O)NC23CC([C@H](C)C(=O)Nc4ccc(F)cc4)(C2)C3)cc1Cl [Example 49, 3-chloro-N-[3-[(1S)-2-(4-fluoroanilino)-1-methyl-2-oxo-ethyl]-1-bicyclo[1.1.1]pentanyl]-4-methyl-benzamide] | 0.25 |
| Cc1cc(C(=O)NC23CC([C@@H](C)C(=O)Nc4ccc(F)cc4)(C2)C3)ccc1Cl [Example 37, 4-chloro-N-[3-[(1R)-2-(4-fluoroanilino)-1-methyl-2-oxo-ethyl]-1-bicyclo[1.1.l]pentanyl]-3-methyl-benzamide] | 0.135 |
| N#Cc1cccc(C(=O)NC23CC(C4(C(=O)Nc5ccc(F)cc5)CCC4)(C2)C3)c1 [Example 4, 3-cyano-N-(3-(1-((4-fluorophenyl)carbamoyl)cyclobutyl)bicyclo[1.1.1]pentan-1-yl)benzamide] | 0.0478 |
| CC(C(=O)Nc1ccc(F)cc1)C12CC(NC(=O)c3cccn4nncc34)(C1)C2 (stereo not drawn) [Example 143, N-[3-[2-(4-fluoroanilino)-1-methyl-2-oxo-ethyl]-1-bicyclo[1.1.1]pentanyl]triazolo[1,5-a]pyridin-1-ium-4-carboxamide] | 0.448 |
| O=C(NC1(C23CC(NC(=O)c4cc(C(F)F)ccn4)(C2)C3)CC1)c1ccc(F)cc1 [Example 27, 4-(difluoromethyl)-N-(3-(1-(4-fluorobenzamido)cyclopropyl)bicyclo[1.1.1]pentan-1-yl)picolinamide] | 0.104 |

More lines, now with the values ahead:

| IC50 [µM] | Compound |
| --- | --- |
| 0.0772 | Cc1c(Cl)cccc1NC(=O)NC12CC([C@H](C)C(=O)Nc3ccc(F)cc3)(C1)C2 [Example 84, (S)-2-(3-(3-(3-chloro-2-methylphenyl)ureido)bicyclo [1.1.1]pentan-1-yl)-N-(4-fluorophenyl)propanamide] |
| 0.0309 | C[C@H](C(=O)Nc1ccc(F)cc1)C12CC(NC(=O)c3cccc(C(F)(F)F)c3)(C1)C2 [Example 62, N-[3-[(1S)-2-(4-fluoroanilino)-1-methyl-2-oxo-ethyl]-1-bicyclo[1.1.1]pentanyl]-3-(trifluoromethyl)benzamide] |
| 0.187 | Cc1cc(C(=O)NC23CC([C@H](C)C(=O)Nc4ccc(F)cc4)(C2)C3)ccc1F [Example 54, 4-fluoro-N-[3-[(1S)-2-(4-fluoroanilino)-1-methyl-2-oxo-ethyl]-1-bicyclo[1.1.1]pentanyl]-3-methyl-benzamide] |
| 0.107 | O=C(NC12CC(C3(NC(=O)c4ccc(F)cc4)CC3)(C1)C2)OCc1ccccc1 [Example 23, Benzyl (3-(1-(4-fluorobenzamido)cyclopropyl)bicyclo[1.1.1]pentan-1-yl)carbamate] |
| 0.133 | CC(C(=O)Nc1ccc(Cl)cc1)C12CC(NC(=O)c3cccc(C#N)c3)(C1)C2 (single isomer, unassigned) [Example 13, N-(3-(1-((4-chlorophenyl)amino)-1-oxopropan-2-yl)bicyclo[1.1.1]pentan-1-yl)-3-cyanobenzamide] |
| 0.00643 | C[C@@H](C(=O)Nc1ccc(C(F)(F)F)cc1)C12CC(NC(=O)c3ccc(Cl)c(Cl)c3)(C1)C2 [Example 92, (R)-3,4-dichloro-N-(3-(1-oxo-1-((4-(trifluoromethyl)phenyl)amino)propan-2-yl)bicyclo[1.1.1]pentan-1-yl)benzamide] |
| 0.276 | O=C(NC1(C23CC(NC(=O)c4nc(C5CC5)no4)(C2)C3)CC1)c1ccc(F)cc1 [Example 29, 3-cyclopropyl-N-(3-(1-(4-fluorobenzamido)cyclopropyl)bicyclo[1.1.1]pentan-1-yl)-1,2,4-oxadiazole-5-carboxamide] |
| 0.039 | C[C@H](C(=O)Nc1ccc(F)cc1)C12CC(NC(=O)Nc3ccc(F)c(Cl)c3)(C1)C2 [Example 83, (S)-2-(3-(3-(3-chloro-4-fluorophenyl)ureido)bicyclo [1.1.1]pentan-1-yl)-N-(4-fluorophenyl)propanamide] |
| 0.178 | COc1cc(C(=O)NC23CC(C(C)C(=O)Nc4ccc(F)cc4)(C2)C3)ccn1 (stereo not drawn) [Example 125, N-[3-[2-(4-fluoroanilino)-1-methyl-2-oxo-ethyl]-1-bicyclo[1.1.1]pentanyl]-2-methoxy-pyridin-1-ium-4-carboxamide] |
| 0.153 | Cc1ccn2ncc(C(=O)NC34CC(C(C)C(=O)Nc5ccc(F)cc5)(C3)C4)c2c1 (stereo not drawn) [Example 124, N-[3-[2-(4-fluoroanilino)-1-methyl-2-oxo-ethyl]-1-bicyclo[1.1.1]pentanyl]-5-methyl-pyrazolo[1,5-a]pyridin-1-ium-3-carboxamide] |
| 0.463 | CC(C(=O)Nc1ccc(F)cc1)C12CC(NC(=O)c3cc4ccccc4cn3)(C1)C2 (stereo not drawn) [Example 144, N-[3-[2-(4-fluoroanilino)-1-methyl-2-oxo-ethyl]-1-bicyclo[1.1.1]pentanyl]isoquinolin-2-ium-3-carboxamide] |
| 0.00291 | CC(C(=O)Nc1ccc(Cl)nc1)C12CC(NC(=O)c3ccc4c(c3)CC4)(C1)C2 (stereo not drawn) [Example 18, N-(3-(1-((6-chloropyridin-3-yl)amino)-1-oxopropan-2-yl)bicyclo[1.1.1]pentan-1-yl)bicyclo[4.2.0]octa-1(6),2,4-triene-3-carboxamide] |
| 0.0303 | C[C@H](C(=O)Nc1ccc(F)cc1)C12CC(NC(=O)Nc3ccc(F)c(F)c3)(C1)C2 [Example 82, (S)-2-(3-(3-(3,4-difluorophenyl)ureido)bicyclo[1.1.1]pentan-1-yl)-N-(4-fluorophenyl)propanamide] |
| 0.113 | Cc1cccc(C(=O)NC23CC(C(C)C(=O)Nc4ccc(F)cc4)(C2)C3)n1 (stereo not drawn) [Example 119, N-[3-[2-(4-fluoroanilino)-1-methyl-2-oxo-ethyl]-1-bicyclo[1.1.1]pentanyl]-6-methyl-pyridin-1-ium-2-carboxamide] |
| 0.0112 | CC(C(=O)Nc1ccc(F)cc1)C12CC(NC(=O)c3cccc(OC(F)(F)F)c3)(C1)C2 (stereo not drawn) [Example 109, N-[3-[2-(4-fluoroanilino)-1-methyl-2-oxo-ethyl]-1-bicyclo[1.1.1]pentanyl]-3-(trifluoromethoxy)benzamide] |
| 0.259 | CC(C(=O)Nc1ccc(F)cc1)C12CC(NC(=O)c3ccc(C(F)(F)F)cn3)(C1)C2 (stereo not drawn) [Example 133, N-[3-[2-(4-fluoroanilino)-1-methyl-2-oxo-ethyl]-1-bicyclo[1.1.1]pentanyl]-5-(trifluoromethyl)pyridin-1-ium-2-carboxamide] |
| 0.122 | C[C@@H](C(=O)Nc1ccc(F)c(F)c1)C12CC(NC(=O)c3ccc(Cl)c(Cl)c3)(C1)C2 [Example 91, (R)-3,4-dichloro-N-(3-(1-((3,4-difluorophenyl)amino)-1-oxopropan-2-yl)bicyclo[1.1.1]pentan-1-yl)benzamide] |
